Results on one substance are retold here after patent US20110245197A1, “HYPERSULFATED GLUCOPYRANOSIDES” (OPKO Health, Inc., priority 2010, published 2011).

The subject of the assay is allergic sheep (dual bronchoconstrictor responders to Ascaris suum antigen). Description: Antigen-induced change in specific pulmonary airflow resistance (SRL): early (EAR) and late (LAR) airway response in allergic sheep. The class given is in vivo. On the procedure:
Pulmonary airflow resistance was measured by taking allergic sheep previously verified as dual bronchoconstrictor responders to Ascaris suum antigen. The sheep were intubated with a cuffed nasotracheal tube and pulmonary airflow resistance (RL) was measured by the esophageal balloon catheter technique, while thoracic gas volume was measured by body plethysmography. Data were expressed as specific RL (SRL, defined as RL times thoracic gas volume (Vtg)). Airway responsiveness was determined by first securing cumulative dose response curves to inhaled carbachol (a constrictor agonist) by measuring SRL before and after inhalation of buffered saline and after each administration of 10 breaths of increasing concentrations of carbachol (0.25, 0.5, 1.0, 2.0 and 4.0% wt/vol solution). Airway responsiveness was measured by determining the cumulative provocation dose (PD400) of carbachol (in breath units) that increased SRL to 400% above baseline. One breath unit was defined as one breath of 1% carbachol solution.
To illustrate the effectiveness of the formulations according to the invention to treat and alleviate allergen related diseases and conditions, including but not limited to the specific diseases and conditions recited herein, sheep were assessed in multiple experiments which compared various formulations containing no added polymer or additive to animals which were provided formulations comprising a compound of formula I (as compound 1a) along with an optional additive selected from a polymer. To measure pulmonary airflow resistance, the sheep were intubated with a cuffed nasotracheal tube and pulmonary airflow resistance (RL) was measured by the esophageal balloon catheter technique, while thoracic gas volume was measured by body plethysmography. […] Data were expressed as specific RL (SRL defined as RL× thoracic gas volume (Vg).
For airway studies, each animal's baseline airway responsiveness (PD400)) was determined and then, on different experimental days, the test sheep underwent airway challenge with Ascaris suum antigen. […]

The mark [1] stands for this setting: aerosol 0.5 mgs/kg (approximately 20 mgs), thirty minutes before antigen challenge, n=5 (FIG. 11).

aluminum salt of octasulfated sucrose: under setting [1], the LAR % protection is 0% and the “effect on EAR” value is on record as “no significant effect”. Besides, the “effectiveness (general statement)” value (general statement in the description, supported by FIG. 11) is listed as “not effective”.
